Measurements reported in publication PMC3131587, “Sulfotyrosine Recognition as Marker for Druggable Sites in the Extracellular Space” (International Journal of Molecular Sciences, 2011).

What was measured:
CXCL12 = biological target: T1, CXCL12 (Homo sapiens, UniProt P48061); experiment: 2D 1H-15N HSQC NMR titration; assay type: binding; conditions: 25 mM d-MES pH 6.8, 37 °C; 250 μM protein; 0-100 mM ligand; shifts at the sTyr21 and sTyr12 sites
T1 construct: [U-15N] recombinant mature chemokine, signal peptide removed; predominantly monomer under assay conditions

CX3CL1 = biological target: T2, CX3CL1 (Homo sapiens, UniProt P78423); experiment: 2D 1H-15N HSQC NMR titration; assay type: binding; conditions: unbuffered pH 3.6, 25 °C; 250 μM protein; 0-100 mM ligand
T2 sequence (P78423 25-100): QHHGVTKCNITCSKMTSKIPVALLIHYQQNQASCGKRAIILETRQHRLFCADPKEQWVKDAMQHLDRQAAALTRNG

CCL5 = biological target: T3, CCL5 (Homo sapiens, UniProt P13501); experiment: 2D 1H-15N HSQC NMR titration; assay type: binding; conditions: 50 mM NaPO4 pH 3.2, 25 °C; 125 μM protein (dimeric); 0-100 mM ligand
T3 construct: [U-15N] recombinant mature chemokine, signal peptide removed; dimeric in the assay
T3 sequence (P13501 24-91): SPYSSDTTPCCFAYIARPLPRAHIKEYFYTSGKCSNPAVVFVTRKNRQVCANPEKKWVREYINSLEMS

CCL5 (Homo sapiens) = CCL5 (Homo sapiens) (UniProt P13501); conditions: cited from earlier work

Row | Compound | chemical shift perturbation (CXCL12) | chemical shift perturbation (CX3CL1) | chemical shift perturbation (CCL5) | Kd (CCL5 (Homo sapiens))
1 | N[C@@H](Cc1ccc(OS(=O)(=O)O)cc1)C(=O)O [sulfotyrosine] | HSQC spectral overlays (Figure 4A) demonstrate significant chemical shift perturbations in the chemokine | Sulfotyrosine titration produced significant perturbations in CX3CL1 residues | Residues His23, Lys45, and Arg47 identified in our titration | –
2 | CCL5 (from UniProt P13501) | – | – | – | 35 µM
